Values quoted from earlier work as cited in PMC13335693, “Discovery of a Potent Fluorescence Polarization Probe for Identifying USP1 Allosteric Inhibitors” (Advanced Science, 2026).

Conditions: stated for compound 4 as known drawback; no reference given

half-life in mouse liver microsomes (MLM): 15 min
SMILES: Cc1cnc(-c2ccccc2C(C)C)nc1NCc1ccc(-n2ccnn2)cc1 [ML323]
